{
  "source": "patent US20120308537A1",
  "about": "“Use Of Collagen Type VII For Maintaining And Re-Inducing Osteogenic Abilities Of Mesenchymal Stem Cells” (UNIVERSITY OF SOUTHERN CALIFORNIA, priority 2009, published 2012)",
  "key": {"human MSCs [1]": {"test_system": "human MSCs", "assay": "Alizarin red (AR) staining of MSCs in osteogenic medium (calcium accumulation and mineralization)", "type": "cell-based", "experimental": "Alizarin red (AR) staining is normally used to determine the calcium accumulation and mineralization that are associated with bone formation. Cells in the tissue culture dishes labeled C7 were incubated with osteogenic induction medium containing 1.0 μg/ml of C7. Cells in the tissue culture dishes labelled OST were incubated with osteogenic induction medium alone (controls).\nFIG. 3A is the scanned image of Alizarin red staining (top) and its quantification (bottom).\nFIG. 3B is the scanned image of Alizarin red staining (top) and its quantification (bottom). […] The results represent mean values+/−standard deviation from experiments performed in triplicates. Note that MSCs only need to be exposed to 0.6 μg/ml of C7 during days 8-12 to attain optimal osteogenic induction.\nFor these experiments, plated MSCs were plated at 3×10^5/per well on 6-well plates in MSC growth medium containing α-MEM containing 16.7% Premium FBS (Atlanta Biologicals Cat# S11550), and 2 mM L-Glutamine. After the cells reached 70% confluency, the medium was changed to osteogenic induction medium with or without 0.6 μg/ml C7 added at the time period indicated above.\nHere the MSCs were treated with 4 μg/ml of NC1 for 21 days in an osteogenic medium. Results represent mean values+/−standard deviation from experiments performed in triplicates.\n(§1) FIG. 9A is a scanned image of Alizarin staining (left) and its quantification (right). Here the MSCs were treated with 1.0 μg/ml C7 or 1.0 μg/ml C7 and 15 μM U0126 in the presence of an osteogenic medium for 21 days. In FIG. 9B, MSCs were cultured as in FIG. 9A. RNAs were collected after 14 days and subjected to RT-PCR analysis for early osteogenic gene markers. Results for staining represent mean values+/−standard deviation from experiments performed in quadruplicate. RT-PCR results represented the mean+/−standard deviation of duplicate experiments with PCR performed in triplicates. The […] inhibitor abolished C7-induced calcium deposition and expression of early osteogenic gene markers."}, "[2]": {"test_system": "ALP, Runx2, BSP, OCN mRNA in MSCs", "assay": "Real-Time PCR analysis of osteogenic-specific gene expression in MSCs", "type": "cell-based, human", "experimental": "In this experiment, MSCs were cultured in 6-well plates in growth medium until they reached confluence. Then, they were switched to osteogenic medium. Respective wells were treated with 1.0 μg/ml C7 until the indicated harvest days. Equal amounts of RNA were reverse transcribed and the mRNA levels of the indicated genes were analyzed using SYBR green master mix and primers for alkaline phosphotase (ALP), Runx2, bone sialoprotein (BSP), and osteocalcin (OCN). Data were normalized to house keeping gene GAPDH and expressed as fold-changes relative to 7D untreated cells. Results represent the mean+/−standard deviation of duplicate experiments with PCR performed in triplicates.\nas §1"}, "[3]": {"test_system": "p-ERK (Ras-ERK signaling pathway)", "assay": "Immunoblot analysis of ERK phosphorylation in MSCs under osteogenic conditions", "type": "cell-based, human", "experimental": "(§2) In this experiment, cells were serum starved for 48 hours and then stimulated with osteogenic medium in the absence or presence of 1.0 μg/ml C7. Cellular extracts were prepared at the times indicated and then subjected to immunoblot analysis with antibodies shown above. Total ERK and paxillin are included to indicate equal protein loading.\nIn this experiment, cells were pretreated with the respective inhibitor for 1 hour before addition of 1.0 μg/ml C7. Regular ERK is included as a control for equal protein loading."}, "human MSCs [4]": {"test_system": "human MSCs", "assay": "Alkaline phosphotase (ALP) staining of MSCs in osteogenic medium", "type": "cell-based", "conditions": "1.0 μg/ml C7, 14 days in osteogenic medium, vs osteogenic medium alone", "experimental": "ALP measures the expression of a key marker enzyme that is needed for bone formation. The tissue culture dishes labeled C7 were treated with 1.0 μg/ml C7 whereas dishes label OST were the controls. The cells were incubated in an osteogenic medium for 14 days."}, "late passage MSCs": {"test_system": "late passage MSCs", "assay": "Alizarin red staining of late passage MSCs (exogenous C7 or lentiviral C7 over-expression)", "type": "cell-based, human", "experimental": "FIG. 5A is the scanned image of Alizarin red staining (top) and its quantification (bottom). Late passage MSCs (passage 8) were treated with 1.0 μg/ml of C7 in the presence of an osteogenic medium for 21 days.\nFIG. 5B is the scanned image of Alizarin red staining (top) and its quantification (bottom). Late passage MSCs infected with lentiviral vectors expressing either green fluorescence protein (GFP) or C7 were subjected to osteogenic medium for 21 days. Results represent mean values+/−standard deviation from experiments performed in triplicates.\nFor these experiments, MSCs from passage 3 were infected with lentiviral vectors expressing either GFP or C7 and cultured for an additional 7 passages. Then infected MSCs (passage 10) were plated at 6 well-plates and then subjected to osteogenic induction medium."}, "p-P38": {"test_system": "p-P38", "assay": "Immunoblot analysis of P38 phosphorylation in MSCs under osteogenic conditions", "type": "cell-based, human", "conditions": "1.0 μg/ml C7; serum starved 48 hours", "experimental": "as §2"}, "[5]": {"test_system": "ectopic osteogenesis induction", "assay": "ALP assay of ectopic osteogenesis induction, intramuscular implantation in rat", "type": "in vivo", "conditions": "4 weeks", "experimental": "(§3) The negative control was carrier only, which consisted of collagen sponge (bovine). The samples were administered to rat via intramuscular implantation on ectopic sites. The experiment lasted for 4 weeks. Two different preparations (C7 and C7′) were tested. The test dosages were: 10, 20 and 40 μg. The results were analyzed by alkaline phosphotase assay (ALP) and histology for bone formation."}, "[6]": {"test_system": "ectopic osteogenesis induction", "assay": "Histology analysis of ectopic osteogenesis induction (bone formation), intramuscular implantation in rat", "type": "in vivo", "conditions": "4 weeks", "experimental": "as §3"}, "MSCs": {"test_system": "MSCs", "assay": "Inducing and maintaining the osteogenicity of MSCs by C7 fragments (general statement)", "type": "cell-based", "conditions": "fragments of C7 containing the CMP subdomain"}, "[7]": {"conditions": "1.0 μg/ml C7 and 15 μM U0126, 14 days"}, "[8]": {"conditions": "1.0 μg/ml C7, normalized to GAPDH"}},
  "data": [
    {"compound": "N#CC(=C(/N)Sc1ccccc1N)/C(C#N)=C(\\N)Sc1ccccc1N", "note": "[U0126, reference compound]", "values": [
      {"measurement": "AR staining of C7-treated MSCs (C7-mediated osteogenic induction)", "setting": "human MSCs [1]; 1.0 μg/ml C7 and 15 μM U0126, 21 days", "value": "reduced"},
      {"measurement": "mRNA expression of ALP in C7-treated MSCs", "setting": "[2]; [7]", "value": "reduced"},
      {"measurement": "mRNA expression of BSP in C7-treated MSCs", "setting": "[2]; [7]", "value": "reduced"},
      {"measurement": "effect of inhibitor on C7-mediated induction of p-ERK", "setting": "[3]; pretreated with inhibitor 1 hour before 1.0 μg/ml C7, proteins collected after 1 hour", "value": "Abrogated"}
    ]},
    {"compound": "type VII collagen [C7]", "values": [
      {"measurement": "osteogenic potential of human MSCs as measured by Alizarin red activity", "setting": "human MSCs [1]; 1.0 μg/ml C7, 21 days in osteogenic medium, vs osteogenic medium alone", "value": "significantly enhances"},
      {"measurement": "concentration needed to attain optimal osteogenic induction", "setting": "human MSCs [1]; exposure during days 8-12 only, osteogenic medium 21 days", "value": 0.6, "unit": "µg/mL"},
      {"measurement": "osteogenic potential of human MSCs as measured by ALP activity", "setting": "human MSCs [4]", "value": "significantly enhances"},
      {"measurement": "restoring osteogenic potential of late passage MSCs (Alizarin red)", "setting": "late passage MSCs; exogenous addition, 1.0 μg/ml C7, passage 8, 21 days", "value": "capable of restoring"},
      {"measurement": "restoring osteogenic potential of late passage MSCs (Alizarin red)", "setting": "late passage MSCs; over-expression by lentiviral vector vs GFP, passage 10, 21 days", "value": "capable of restoring"},
      {"measurement": "ALP mRNA expression (early osteogenic marker)", "setting": "[2]; [8]", "value": "upregulates"},
      {"measurement": "BSP mRNA expression (early osteogenic marker)", "setting": "[2]; [8]", "value": "upregulates"},
      {"measurement": "OCN mRNA expression (late osteogenic marker)", "setting": "[2]; [8]", "value": "upregulates"},
      {"measurement": "Runx2 mRNA expression (early osteogenic marker)", "setting": "[2]; [8]", "value": "upregulates"},
      {"measurement": "production of p-ERK", "setting": "[3]; 1.0 μg/ml C7, as early as 10 minutes, sustained up to 1 hour, serum starved 48 hours", "value": "increased"},
      {"measurement": "level of p-P38", "setting": "p-P38", "value": "remained unchanged"},
      {"measurement": "ALP", "setting": "[5]; 10 ug C7 or C7′ + 1 ug BMP-2", "value": 0.257},
      {"measurement": "ALP/Pro", "setting": "[5]; 10 ug C7 or C7′ + 1 ug BMP-2", "value": 2.360},
      {"measurement": "ALP/Pro", "setting": "[5]; 10 ug C7 or C7′, no BMP-2", "value": 0.517},
      {"measurement": "ALP", "setting": "[5]; 10 ug C7 or C7′, no BMP-2, collagen sponge, intramuscular ectopic site", "value": 0.094},
      {"measurement": "ALP", "setting": "[5]; 20 ug C7 or C7′ + 1 ug BMP-2", "value": 0.384},
      {"measurement": "ALP/Pro", "setting": "[5]; 20 ug C7 or C7′ + 1 ug BMP-2", "value": 1.893},
      {"measurement": "ALP", "setting": "[5]; 20 ug C7 or C7′, no BMP-2", "value": 0.094},
      {"measurement": "ALP/Pro", "setting": "[5]; 20 ug C7 or C7′, no BMP-2", "value": 0.500},
      {"measurement": "ALP", "setting": "[5]; 40 ug C7 or C7′, no BMP-2", "value": 0.092},
      {"measurement": "ALP/Pro", "setting": "[5]; 40 ug C7 or C7′, no BMP-2", "value": 0.364},
      {"measurement": "Bone score", "setting": "[6]; 10 ug C7 or C7′ + 1 ug BMP-2", "value": 3},
      {"measurement": "Bone score", "setting": "[6]; 10 ug C7 or C7′, no BMP-2", "value": 0},
      {"measurement": "Bone score", "setting": "[6]; 20 ug C7 or C7′ + 1 ug BMP-2", "value": 0},
      {"measurement": "Bone score", "setting": "[6]; 20 ug C7 or C7′, no BMP-2", "value": 0},
      {"measurement": "Bone score", "setting": "[6]; 40 ug C7 or C7′, no BMP-2", "value": 0},
      {"measurement": "BMP-2-mediated bone induction (ALP assay and histology)", "setting": "[6]; low dosage 10 μg with BMP-2, rat intramuscular implantation", "value": "significantly enhance"},
      {"measurement": "effectiveness in inducing and maintaining the osteogenicity of MSCs", "setting": "MSCs", "value": "relatively effective"}
    ]}
  ]
}
